Usually IC50 stands for the midpoint of a concentration-inhibition curve.

For this test, the system named is T1, native SmNACE.
T1 construct: native ectoenzyme on the outer tegument of live adult worms (2 male + 2 female per well)
Put plainly: fluorimetric NAD glycohydrolase assay on live adult worms, ε-ADPR release. It is filed as cell-based, Schistosoma mansoni. Conditions: ε-NAD substrate (20 μM in the assay), live worms (2 male + 2 female) in 200 μl HBSS, 37 °C. The source says: fluorimetric NAD glycohydrolase assay on live adult worms, ε-ADPR release on native SmNACE | The IC50 of CMP1 on live parasites is indicated.

Consider `Cc1occc1C(=O)N/N=C\c1ccc(O)c(O)c1` [CMP1, (Z)-N′-(3,4-Dihydroxybenzylidene)-2-methylfuran-3-carbohydrazide], for which the IC50 came out at 78 µM.

(Values after paper PMC7252647, “Inhibition of the NAD salvage pathway in schistosomes impairs metabolism, reproduction, and parasite survival” (PLoS Pathogens, 2020).)
